Test results from article PMC8998978, “Toward a Treatment of Cancer: Design and In Vitro/In Vivo Evaluation of Uncharged Pyrazoline Derivatives as a Series of Novel SHP2 Inhibitors” (International Journal of Molecular Sciences, 2022).

Experiments:
[1] = biological target: T1, SHP2 protein in HCT116 cells (Homo sapiens, UniProt Q06124); experiment: Cellular thermal shift assay (CETSA); format: cell-based; conditions: HCT116, 10 μM 4o, 3 h, versus DMSO
T1 construct: endogenous in cells; host or cells: HCT116
T1 sequence (Q06124 1-593): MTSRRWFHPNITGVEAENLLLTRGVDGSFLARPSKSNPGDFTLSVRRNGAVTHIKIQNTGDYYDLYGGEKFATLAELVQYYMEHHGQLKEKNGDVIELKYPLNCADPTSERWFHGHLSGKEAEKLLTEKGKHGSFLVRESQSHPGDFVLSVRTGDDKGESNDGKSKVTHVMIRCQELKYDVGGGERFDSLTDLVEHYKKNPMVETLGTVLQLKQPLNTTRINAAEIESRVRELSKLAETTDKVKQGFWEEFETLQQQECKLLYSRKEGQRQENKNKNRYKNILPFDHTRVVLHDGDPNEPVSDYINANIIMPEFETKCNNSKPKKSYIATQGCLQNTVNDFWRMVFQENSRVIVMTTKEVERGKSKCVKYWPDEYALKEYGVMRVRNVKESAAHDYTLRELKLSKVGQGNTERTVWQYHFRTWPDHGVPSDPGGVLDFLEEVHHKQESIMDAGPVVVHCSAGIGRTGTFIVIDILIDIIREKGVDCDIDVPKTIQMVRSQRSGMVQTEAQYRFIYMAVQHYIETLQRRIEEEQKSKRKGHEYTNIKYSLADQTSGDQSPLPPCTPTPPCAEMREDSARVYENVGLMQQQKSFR
Procedure: The assay was performed as described previously. In brief, HCT116 cells were treated with DMSO or 4o for 3 h. Cells were resuspended in PBS and divided into four aliquots, and then the cell lysates were heated at different temperatures by T100^TM Thermal Cycler (Bio-Rad, Hercules, CA, USA). The heated cells were subjected to repeated freezing and thawing with liquid nitrogen for three times followed by centrifugation at 20,000× g for 20 min at 4 °C. Finally, the supernatants were gathered and boiled for 10 min after adding the loading buffer. Protein levels were assessed by Western blotting.

HCT116 cells = experiment: Hoechst 33258 staining; format: cell-based, human; conditions: HCT116, 4o 2.5, 5 and 10 μM, 24 h
Procedure: HCT116 cells were treated with different concentrations of 4o for 24 h, then were stained with Hoechst 33,258 (Beyotime Institute of Biotechnology, Shanghai, China). The nuclear morphology was observed under fluorescence microscope.

Acute toxicity assay = format: in vivo; conditions: for Mortality: 14 days observation
Procedure: In acute toxicity assay, 18 female Kunming mice (Jinan Pengyue Experimental Animal Breeding Co., Ltd., Jinan, China), 18–22 g of weight, were used. The mice were randomly divided into three groups (n = 6), and treated with vehicle (0.5% CMC-Na solution) or 4o (300, 2000 mg/kg) by gavage once. The body weight, toxicity effect, general behavior and mortality of mice were monitored within 14 days after 4o treatment. In subacute toxicity assay, 10 male and 10 female Kunming mice (Jinan Pengyue Experimental Animal Breeding Co., Ltd., Jinan, China), 18–22 g of weight, were used. The mice were randomly divided into two groups with 5 males and 5 females, and were orally treated with vehicle (0.5% CMC-Na solution) or 4o (1000 mg/kg) once a day for 28 days. […]. After 28 days of treatment, the mice were anaesthetized with isoflurane and killed by decapitation. The heart, liver, spleen and kidney tissues were collected, and histologically analyzed by H&E staining.

[2] = test system: RAS/MAPK signaling pathway in HCT116 cells; experiment: RAS activation assay and p-Erk Western blotting; format: cell-based, human; conditions: HCT116, 4o 2.5, 5 and 10 μM, 12 h, dose-dependent, versus DMSO
Procedure: HCT116 cells were harvested, lysed on ice in RIPA buffer (Beyotime Institute of Biotechnology, Shanghai, China) and boiled. Protein concentration was measured by BCA protein assay kit (Beyotime Institute of Biotechnology, Shanghai, China). The protein samples were separated by SDS-PAGE and transferred to the membrane (Pall, New York, NY, USA). Afterwards, the membrane was immunoblotted with the corresponding primary antibody (C-parp (#5625), C-cas9 (#9505), C-cas3 (#9661), Bcl-2 (#4223), Bax (#5023), SHP2 (#3752), P-Erk1/2 (#9101) and Erk1/2 (#9102), 1:1000, Cell Signaling Technology, Danvers, MA, USA; Tubulin (#ET1602-4), 1:5000, HUABIO, Hangzhou, China) and the appropriate HRP-conjugated secondary antibody, and determined with ECL detection reagent (Thermo Scientific, Waltham, MA, USA).
Active RAS (RAS-GTP) was pulled down from HCT116 cells. Cells were seeded in 6-well plates and treated with different concentrations of 4o for 12 h after overnight serum starvation. Cells were stimulated with 100 ng/mL hEGF for 5 min before cell lysis. On the basis of protein extraction and quantification, RAS activation assay biochem kit (Cytoskeleton Inc., Denver, CO, USA) was used for detection according to the requirements of manufacturers.

[3] = biological target: T2, recombinant human SHP2 protein (Homo sapiens, UniProt Q06124); experiment: Inhibition type of SHP2 (double reciprocal plot, pNPP); format: biochemical; conditions: 4o 0, 0.5, 1, 2 µM; various pNPP concentrations
T2 sequence (Q06124 1-593): T1 sequence (Q06124 1-593)
Procedure: Inhibition kinetic studies were performed with various concentrations of pNPP in the absence or presence of inhibitors. The experimental results were analyzed using double reciprocal plotting to evaluate the type of inhibition.
The experimental process was similar to the SHP2 inhibition assay. In the assay, the initial rates at a series of pNPP concentrations were determined at various fixed inhibitor concentrations of 4o (0 µM, 0.5 µM, 1 µM and 2 µM) as described above. The values of 1/[S] and 1/[V] were obtained from the substrate concentration and initial reaction rate, and were plotted on the x-axis and y-axis, respectively. The inhibition type of SHP2 was determined according to the intersection characteristics of the obtained approximate line.

With CCOc1ccc(Oc2ccc(C3=NN(C4=NC(=O)CS4)C(c4cc(O)c(O)c(Br)c4Br)C3)cc2)cc1 (stereo not drawn) [Compound 4o, 2-(5-(2,3-dibromo-4,5-dihydroxyphenyl)-3-(4-(4-ethoxyphenoxy)phenyl)-4,5-dihydro-1H-pyrazol-1-yl)thiazol-4(5H)-one] the “Stability of SHP2 protein (CETSA)” value [1] was “obviously increased”, the “Nuclear morphology (Hoechst 33,258 staining)” value (HCT116 cells) was “chromatin was condensed and apoptosis occurred” and the “Body Weight (g) Day 0” value (Acute toxicity assay; 300 mg/kg single oral dose) was 24.41 ± 0.64 g. The “Body Weight (g) Day 7” value (Acute toxicity assay; 300 mg/kg single oral dose) was 28.78 ± 0.78 g, the “Body Weight (g) Day 14” value (Acute toxicity assay; 300 mg/kg single oral dose) was 30.75 ± 0.99 g and the Mortality (Acute toxicity assay; 300 mg/kg single oral dose) was 0/6. The “Body Weight (g) Day 0” value (Acute toxicity assay; 2000 mg/kg single oral dose) was 25.19 ± 1.45 g, the “Body Weight (g) Day 7” value (Acute toxicity assay; 2000 mg/kg single oral dose) was 30.51 ± 0.88 g and the “Body Weight (g) Day 14” value (Acute toxicity assay; 2000 mg/kg single oral dose) was 31.43 ± 1.09 g. The Mortality (Acute toxicity assay; 2000 mg/kg single oral dose) was 0/6, the “Levels of RAS-GTP and p-Erk” value [2] was “decreased” and the “Inhibition type of SHP2” value [3] was “competitive SHP2 inhibitor”.
